Assay: xn = mol fraction of the nth substance listed

CC(=O)[O-].CC[n+]1ccn(C)c1 + CCO
Settings | electrical conductivity [S/m] | viscosity [mPa·s]
278.15 K, 101 kPa, x2 = 0.201 | – | 264
278.15 K, 101 kPa, x2 = 0.9 | – | 3.396
288.15 K, 101 kPa, x2 = 0 | – | 284
288.15 K, 101 kPa, x2 = 0.1 | – | 206.6
288.15 K, 101 kPa, x2 = 0.8 | – | 5.15
293.15 K, 101.3 kPa, x2 = 0 | 0.243 | –
293.15 K, 101.3 kPa, x2 = 0.0733 | 0.247 | –
293.15 K, 101.3 kPa, x2 = 0.1229 | 0.269 | –
293.15 K, 101.3 kPa, x2 = 0.2965 | 0.433 | –
293.15 K, 101.3 kPa, x2 = 0.4286 | 0.63 | –
293.15 K, 101.3 kPa, x2 = 0.5373 | 0.991 | –
293.15 K, 101.3 kPa, x2 = 0.7309 | 1.447 | –
293.15 K, 101.3 kPa, x2 = 0.7625 | 1.539 | –
293.15 K, 101.3 kPa, x2 = 0.7754 | 1.615 | –
293.15 K, 101.3 kPa, x2 = 0.8081 | 1.329 | –
293.15 K, 101.3 kPa, x2 = 0.8897 | 0.71 | –
293.15 K, 101.3 kPa, x2 = 0.9163 | 0.505 | –
293.15 K, 101.3 kPa, x2 = 0.9299 | 0.404 | –
293.15 K, 101.3 kPa, x2 = 0.9383 | 0.335 | –
293.15 K, 101.3 kPa, x2 = 0.9494 | 0.252 | –
298.15 K, 101 kPa, x2 = 0.4002 | – | 31.8
298.15 K, 101 kPa, x2 = 0.5001 | – | 20.04
298.15 K, 101 kPa, x2 = 0.8666 | – | 2.67
308.15 K, 101 kPa, x2 = 0.2999 | – | 32.06
308.15 K, 101 kPa, x2 = 0.6 | – | 9.27
308.15 K, 101 kPa, x2 = 0.8 | – | 3.398
313.15 K, 101 kPa, x2 = 0.1059 | – | 43.5
313.15 K, 101 kPa, x2 = 0.2471 | – | 28.5
313.15 K, 101 kPa, x2 = 0.5572 | – | 9.24
313.15 K, 101 kPa, x2 = 0.7494 | – | 3.89
318.15 K, 101 kPa, x2 = 0.1 | – | 39.7
318.15 K, 101 kPa, x2 = 0.201 | – | 29.99
318.15 K, 101 kPa, x2 = 0.2999 | – | 22.19
318.15 K, 101 kPa, x2 = 0.4002 | – | 15.76
318.15 K, 101 kPa, x2 = 0.6 | – | 7.27
318.15 K, 101 kPa, x2 = 0.9 | – | 1.591
328.15 K, 101 kPa, x2 = 0 | – | 30.3
328.15 K, 101 kPa, x2 = 0.7 | – | 3.833
338.15 K, 101 kPa, x2 = 0 | – | 21.85
338.15 K, 101 kPa, x2 = 0.8 | – | 2.049
343.15 K, 101 kPa, x2 = 0.1059 | – | 14.96
343.15 K, 101 kPa, x2 = 0.3504 | – | 8.69
343.15 K, 101 kPa, x2 = 0.4165 | – | 7.31

CCCCC[n+]1ccccc1.N#C[N-]C#N + O
100 kPa
Settings | electrical conductivity [S/m] | viscosity [mPa·s]
298.15 K, x1 = 0.9354 | 0.667 | –
303.15 K, x1 = 0.9354 | 0.833 | –
308.15 K, x1 = 0.9514 | – | 28.8
308.15 K, x1 = 0.9515 | 0.979 | –
308.15 K, x1 = 0.968 | – | 29.6
313.15 K, x1 = 0.9196 | – | 22.92
313.15 K, x1 = 0.9198 | 1.23 | –
318.15 K, x1 = 0.9681 | 1.27 | –
318.15 K, x2 = 0.01457 | 1.23 | –
323.15 K, x1 = 0.9196 | – | 15.16
323.15 K, x1 = 0.9198 | 1.67 | –
323.15 K, x1 = 0.968 | – | 16.91
323.15 K, x1 = 0.9681 | 1.5 | –
323.15 K, x2 = 0.01492 | – | 17.54
328.15 K, x1 = 0.9351 | – | 14.21
328.15 K, x1 = 0.9354 | 1.82 | –
328.15 K, x2 = 0.01457 | 1.65 | –
328.15 K, x2 = 0.01492 | – | 15.11
338.15 K, x1 = 0.9514 | – | 11.11
338.15 K, x1 = 0.9515 | 2.23 | –

Cn1cc[n+](CCC[n+]2ccn(C)c2)c1.[Br-].[Br-] + O
viscosity [mPa·s], 101 kPa
Settings | x1 = 0.0005912 | x1 = 0.0006805 | x1 = 0.0007474 | x1 = 0.0009122 | x1 = 0.00129 | x1 = 0.00144 | x1 = 0.001838 | x1 = 0.002094 | x1 = 0.002204 | x1 = 0.002491
293.15 K | – | – | – | – | – | 1.05 | 1.066 | 1.071 | 1.071 | 1.084
298.15 K | 0.905 | 0.904 | 0.908 | 0.913 | – | 0.935 | 0.948 | 0.955 | 0.955 | 0.962
303.15 K | 0.812 | 0.811 | 0.816 | – | 0.832 | 0.84 | 0.85 | 0.855 | 0.857 | 0.859
308.15 K | 0.734 | 0.734 | 0.739 | 0.74 | 0.754 | – | 0.768 | 0.77 | 0.774 | 0.775
313.15 K | 0.669 | 0.67 | 0.673 | – | – | 0.693 | 0.7 | 0.702 | 0.705 | 0.708
